How the values were obtained:
saphenous artery rings = experiment: Vasorelaxant effect in vitro (phenylephrine-contracted artery rings); parameters: species or system Rabbits; conditions: Oryctolagus cuniculus, concentration reducing phenylephrine-induced contraction by 50%
[1] = target: T1, recombinant guanylate cyclase reporter cell line (Rattus norvegicus, UniProt P20595); experiment: sGC-activating activity in the CHO reporter cell in vitro; format: cell-based
T1 construct: expressed in transfected cells; host or cells: CHO reporter cell line
T1 sequence (P20595 1-619): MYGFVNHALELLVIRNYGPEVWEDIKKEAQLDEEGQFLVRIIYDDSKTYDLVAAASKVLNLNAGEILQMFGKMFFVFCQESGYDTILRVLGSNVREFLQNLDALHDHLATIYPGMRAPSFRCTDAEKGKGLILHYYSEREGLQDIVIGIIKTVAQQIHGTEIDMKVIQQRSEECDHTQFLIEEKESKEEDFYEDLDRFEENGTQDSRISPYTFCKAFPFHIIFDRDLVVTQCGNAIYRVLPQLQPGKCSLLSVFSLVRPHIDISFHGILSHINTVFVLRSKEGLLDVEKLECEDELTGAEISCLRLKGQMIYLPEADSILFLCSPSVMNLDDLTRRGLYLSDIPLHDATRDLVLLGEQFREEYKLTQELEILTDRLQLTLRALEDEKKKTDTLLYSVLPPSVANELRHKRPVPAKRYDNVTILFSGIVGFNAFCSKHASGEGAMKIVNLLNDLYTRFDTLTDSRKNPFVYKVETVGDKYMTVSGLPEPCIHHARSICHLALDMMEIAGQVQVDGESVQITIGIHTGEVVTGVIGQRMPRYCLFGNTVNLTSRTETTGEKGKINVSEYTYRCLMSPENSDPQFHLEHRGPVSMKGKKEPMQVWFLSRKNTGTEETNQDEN
T1 sequence (P19686 1-690 partner): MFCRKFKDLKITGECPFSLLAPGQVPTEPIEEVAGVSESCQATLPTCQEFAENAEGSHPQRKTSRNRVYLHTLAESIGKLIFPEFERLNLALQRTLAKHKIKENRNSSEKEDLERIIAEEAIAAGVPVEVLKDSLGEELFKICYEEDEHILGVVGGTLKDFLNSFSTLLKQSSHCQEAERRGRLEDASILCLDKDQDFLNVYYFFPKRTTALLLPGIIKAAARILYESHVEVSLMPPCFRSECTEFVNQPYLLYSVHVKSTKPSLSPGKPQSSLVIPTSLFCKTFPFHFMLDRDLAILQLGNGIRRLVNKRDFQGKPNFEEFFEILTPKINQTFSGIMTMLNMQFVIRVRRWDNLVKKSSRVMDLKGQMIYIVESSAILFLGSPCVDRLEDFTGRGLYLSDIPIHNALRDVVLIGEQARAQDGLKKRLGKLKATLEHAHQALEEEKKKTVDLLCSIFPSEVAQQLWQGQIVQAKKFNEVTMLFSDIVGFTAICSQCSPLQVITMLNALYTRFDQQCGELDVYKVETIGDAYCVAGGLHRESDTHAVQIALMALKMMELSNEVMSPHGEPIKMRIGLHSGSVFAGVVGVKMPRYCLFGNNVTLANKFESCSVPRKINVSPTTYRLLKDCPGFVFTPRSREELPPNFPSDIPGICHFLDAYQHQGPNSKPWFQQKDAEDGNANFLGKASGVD
Procedure: The cellular action of the compounds according to the invention is determined at a recombinant guanylate cyclase reporter cell line, as described in F. Wunder et al., Anal. Biochem. 339, 104-112 (2005).

SMILES: O=C(O)CCc1cccc(NC(=O)C(c2ccc(CN3N=C(c4ccccc4)OCC3=O)cc2)C2CCCC2)c1 (single isomer, unassigned) [Example 103, 3-{3-[(Cyclopentyl{4-[(5-oxo-2-phenyl-5,6-dihydro-4H-1,3,4-oxadiazin-4-yl)methyl]phenyl}acetyl)amino]phenyl}propanoic acid]
- IC50 (saphenous artery rings): 120 nM
- MEC (minimum effective concentration), sGC-activating activity in the CHO reporter cell [1]: 10 nM

From patent US8987256B2, “Oxo-heterocyclic substituted carboxylic acid derivatives and the use thereof” (Bayer Intellectual Property GmbH, priority 2008, dated 2015)
